Data reported in publication PMC12390684 (Viruses, 2025).
Like-named read-outs stand apart in the source and are kept apart here.

Key:
HIV-1Laï = assay: microbe, parasite or virus in culture; type: cell-based; details: for EC50: 24 h infection, read-out: EC50; for SI (CC50/EC50): selectivity index; for nontoxic concentrations at which a proviral effect was seen: Figure S5
[1] = Cytotoxicity (CellTiter 96 AQueous); type: cell-based; details: human
[2] = biological target: IN-GCN2 interaction (6xHis-IN / GST-GCN2) (UniProt P04585+Q9P2K8); assay: biochemical; type: binding, HIV-1 IN; human GCN2; details: for IC50: IC50, inhibition of IN-GCN2 interaction; for IN-GCN2 interaction (%): screen, single dose 100 µM, single replicate, residual AlphaLISA signal normalized to DMSO control
[3] = biological target: phosphorylation of IN by GCN2 (UniProt P04585+Q9P2K8); assay: In vitro phosphorylation assay: phosphorylation of IN by GCN2; type: biochemical, HIV-1 IN; human GCN2; details: GCN2 25 nM, IN 700 nM; compound 10 µM to 4.6 nM
GCN2 = biological target: T1, GCN2 (Homo sapiens, UniProt Q9P2K8); assay: In vitro phosphorylation assay: GCN2 autophosphorylation; type: biochemical; details: GCN2 25 nM, IN 700 nM; compound 10 µM to 4.6 nM
T1 sequence (Q9P2K8 192-1024): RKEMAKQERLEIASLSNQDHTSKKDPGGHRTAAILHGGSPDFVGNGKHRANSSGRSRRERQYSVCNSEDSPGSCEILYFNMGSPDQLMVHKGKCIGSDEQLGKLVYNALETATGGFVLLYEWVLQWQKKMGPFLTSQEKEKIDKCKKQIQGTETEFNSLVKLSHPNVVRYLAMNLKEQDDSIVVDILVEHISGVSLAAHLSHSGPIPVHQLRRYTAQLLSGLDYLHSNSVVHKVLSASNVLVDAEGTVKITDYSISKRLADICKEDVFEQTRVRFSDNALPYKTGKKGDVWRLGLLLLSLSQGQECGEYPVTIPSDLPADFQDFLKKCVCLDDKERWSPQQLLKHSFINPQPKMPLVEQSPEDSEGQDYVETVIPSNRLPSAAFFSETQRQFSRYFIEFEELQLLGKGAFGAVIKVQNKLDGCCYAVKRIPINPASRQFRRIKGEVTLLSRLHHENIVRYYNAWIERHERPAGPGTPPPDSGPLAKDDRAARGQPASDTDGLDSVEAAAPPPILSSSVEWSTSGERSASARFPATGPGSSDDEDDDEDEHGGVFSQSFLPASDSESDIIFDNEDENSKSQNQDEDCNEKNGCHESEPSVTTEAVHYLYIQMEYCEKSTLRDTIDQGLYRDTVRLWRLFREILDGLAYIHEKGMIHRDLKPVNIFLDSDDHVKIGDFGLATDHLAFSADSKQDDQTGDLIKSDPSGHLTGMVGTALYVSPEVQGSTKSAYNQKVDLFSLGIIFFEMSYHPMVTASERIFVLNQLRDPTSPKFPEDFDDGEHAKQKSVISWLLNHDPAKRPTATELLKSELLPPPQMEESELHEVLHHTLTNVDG

HIV-1 IN [4] = biological target: T2, HIV-1 IN (Human immunodeficiency virus type 1 group M subtype B, UniProt P04585); assay: Strand transfer (ST) gel-based assay; type: biochemical; details: for apparent IC50, inhibition of ST activity, in words: 400 nM IN, 20 nM substrate, 1 h 37 °C
HIV-1 IN [5] = biological target: T2, HIV-1 IN; details: cited from earlier work
[6] = biological target: GST-GCN2, active truncated human GCN2 (192-1024) with an N-terminal GST tag (human) (UniProt Q9P2K8); assay: AlphaScreen or HTRF
[7] = Human immunodeficiency virus 1, MAGI, 24 h
[8] = P4 MAGI CCR5+ cells, 24 h, read-out: CC50
[9] = SAR study, fresh dilutions from powder, at least three independent experiments
[10] = plated compounds of the screen, dose-response 100 µM to 46 nM (Figure 1B), n = 9

Molecule: O=C1c2c(O)ccc(O)c2C(=O)c2c(NCCCO)ccc(NCCCO)c21 [Compound 2l]
- EC50 (HIV-1Laï; [7]): > 5 µM
- CC50 at 24 h [1, 8]: > 5 µM
- IC50 [2, 9]: 13 µM

Molecule: N#CCCNc1ccc(NCCC#N)c2c1C(=O)c1c(O)ccc(O)c1C2=O [Compound 2m]
- EC50 (HIV-1Laï; [7]): > 5 µM
- CC50 at 24 h [1, 8]: > 5 µM
- IC50 [2, 9]: 16 µM

Molecule: CCOC(=O)N1CCc2cc(OC)c(OC)c3c2c1cc1cc(OC)c(OC)cc13 [Compound 3d]
- effect on HIV replication, in words (HIV-1Laï): decrease in viral replication
- EC50 (HIV-1Laï): 1.02 µM
- EC50 (HIV-1Laï; [7]): 1 µM
- SI (CC50/EC50) (HIV-1Laï): >4.9
- CC50 at 24 h [1, 8]: > 5 µM
- IC50 [2, 9]: 71 µM

Molecule: COc1cc2c(cc1OC)-c1c3c(cc4c1[C@H](C2)N(C)CC4)OCO3 [Compound 3e]
- EC50 (HIV-1Laï; [7]): > 5 µM
- CC50 at 24 h [1]: > 5 µM
- IC50 [2, 9]: 73 µM

Molecule: S=c1[nH]c2ccccc2nc1NCc1ccccc1 [Compound 3f]
- EC50 (HIV-1Laï): 2.37 µM
- EC50 (HIV-1Laï; [7]): 2.4 µM
- SI (CC50/EC50) (HIV-1Laï): >2.1
- CC50 at 24 h [1, 8]: > 5 µM
- IC50 [2, 9]: 83 µM

Molecule: COc1cc2c3c(c1)-c1c(ccc(OC)c1O)CC3N(C)CC2 (stereo not shown) [Compound 3i]
- EC50 (HIV-1Laï; [7]): > 5 µM
- CC50 at 24 h [1]: > 5 µM
- IC50 [2, 9]: > 100 µM

Molecule: CCC1(O)CC(OC2CC(N(C)C)C(OC3CC(O)C(OC4CCC(=O)C(C)O4)C(C)O3)C(C)O2)c2c(cc3c(c2O)C(=O)c2c(O)ccc(O)c2C3=O)C1C(=O)OC (stereo not shown) [NSC18334, cinerubin A]
- inhibition of IN phosphorylation, in words [3]: full inhibition
- EC50 (HIV-1Laï; [7]): 0.79 µM
- CC50 ([1]; 24 h, read-out: CC50): > 5 µM
- effect on GCN2 autophosphorylation, in words (GCN2): inhibited GCN2 autophosphorylation
- IN-GCN2 interaction (%) [2]: 5.47%
- apparent IC50, inhibition of ST activity, in words (HIV-1 IN [4]): low-micromolar

Molecule: CCCCCC1=C/C(=C/c2[nH]c(-c3ccc[nH]3)cc2OC)N=C1C [NSC47147, prodigiosin]
- nontoxic concentrations at which a proviral effect was seen (HIV-1Laï): < 200 nM
- CC50 at 24 h ([1]; 24 h, read-out: CC50): 1.96 µM
- IC50 ([2]; plated compounds of the screen, dose-response (Figure 1B), n = 9): 0.88 µM
- IN-GCN2 interaction (%) [2]: 6.31%

Molecule: CCCCC1CCCCCCc2[nH]c(C=C3N=C(c4ccc[nH]4)C=C3OC)cc21 (stereo not shown) [NSC247562]
- nontoxic concentrations at which a proviral effect was seen (HIV-1Laï): < 200 nM
- CC50 ([1]; 24 h, read-out: CC50): 3.85 µM
- IC50 [2, 10]: 1.45 µM
- IN-GCN2 interaction (%) [2]: 8.97%

Molecule: CC(=O)OC(C)C1C2=C(C(=O)CC1(C)O)C(=O)c1c(ccc(-c3ccc4c(c3O)C(=O)C3=C(C4=O)C(C(C)OC(C)=O)C(C)(O)CC3=O)c1O)C2=O (stereo not shown) [NSC248605, Julimycin B2]
- IC50 (HIV-1 IN [5]; read-out: IC50, non-selective inhibition of IN activities): 140 µM
- effect on HIV replication, in words (HIV-1Laï): anti-
- EC50 (HIV-1Laï; Human immunodeficiency virus 1, MAGI): 0.167 µM
- CC50 at 24 h [1, 8]: > 5 µM
- IC50 [2, 10]: 30 µM
- IN-GCN2 interaction (%) [2]: 6.97%

Molecule: CC1Oc2cc3c(-c4c(O)cc(O)c5c(O)c6c(cc45)OC(C)C(C)C6=O)c(O)cc(O)c3c(O)c2C(=O)C1C (stereo not shown) [NSC345647, chaetochromin]
- inhibition of IN phosphorylation, in words [3]: full inhibition
- effect on HIV replication, in words (HIV-1Laï): inactive
- EC50 (HIV-1Laï): > 5 µM
- CC50 at 24 h ([1]; 24 h, read-out: CC50): > 5 µM
- effect on GCN2 autophosphorylation, in words (GCN2): inhibited GCN2 autophosphorylation
- IC50 [2, 10]: 5.2 µM
- IN-GCN2 interaction (%) [2]: 6.36%
- apparent IC50, inhibition of ST activity, in words (HIV-1 IN [4]): mid-nanomolar concentration range

Molecule: COc1cccc2c1C(=O)c1c(O)c3c(c(O)c1C2=O)C[C@@](O)(C(=O)CO)C[C@@H]3O[C@H]1C[C@H](N2CCOCC2)[C@H](O)[C@H](C)O1 [NSC354646, reference compound]
- inhibition of IN in vitro, in words (HIV-1 IN [5]): micromolar inhibitors

Molecule: COc1cc2c(cc3c4c(cc5c(c42)OCO5)CCN3C)c(OC)c1OC [NSC785155]
- inhibition of IN phosphorylation, in words [3]: partially inhibited
- EC50 (HIV-1Laï; [7]): > 5 µM
- CC50 at 24 h [1, 8]: > 5 µM
- effect on GCN2 autophosphorylation, in words (GCN2): limited impact
- IC50 [2, 9]: 5.6 µM
- IC50 [2, 10]: 14.5 µM
- IN-GCN2 interaction (%) [2]: 8.90%
- inhibition of ST activity, in words (HIV-1 IN [4]; 111 µM to 51 nM): unable to fully inhibit ST even at 111 µM

Molecule: COc1cc2c3c(cc4ccccc4c3c1O)N(C)CC2 [NSC785168]
- EC50 (HIV-1Laï; [7]): > 5 µM
- CC50 ([1]; 24 h, read-out: CC50): > 5 µM
- IC50 [2, 9]: 17 µM
- IC50 [2, 10]: 5.7 µM
- IN-GCN2 interaction (%) [2]: 4.53%

Molecule: Recombinant full-length HIV-1 integrase (6xHis-IN fusion protein) (enzyme)
- AlphaLISA signal (DMSO control, plate 1) [6]: 5610 Alpha counts
- AlphaLISA signal (DMSO control, plate 2) [6]: 3900 Alpha counts
